Read-outs that look alike come from different tables or passages of the source.
Columns and labels:
PKN3 = target: T1, PKN3 (Homo sapiens, UniProt Q6P5Z2); assay: PanQinase kinase panel: PKN3; format: biochemical; conditions: read-out: INHIBITORY EFFECT @ 1 uM: PKN3
T1 construct: purchased Reaction Biology Europe GmbH
Procedure: (§1) Screening procedures were performed in accordance with the company's on-line protocol [accessed on-line Mar.
(§2) For each kinase, the median value of the cpm of three wells was defined as “low control” (n=3). This value reflects unspecific binding of radioactivity to the plate in the absence of a protein kinase but in the presence of the substrate. Additionally, for each kinase the median value of the cpm of three other wells was taken as the “high control,” i.e. full activity in the absence of any inhibitor (n=3). The difference between high and low control of each enzyme was taken as 100% activity.
(§3) As part of the data evaluation the low control of each kinase was subtracted from the high control value as well as from their corresponding “compound values”. The residual activity (in %) for each compound well was calculated by using the following formula: Res. Activity (%)=100×[(signal of compound−low control)/(high control−low control)].

ERBB2 = target: T2, ERBB2 (Homo sapiens, UniProt P04626); assay: PanQinase kinase panel: ERBB2; format: biochemical; conditions: read-out: INHIBITORY EFFECT @ 1 uM: ERBB2
T2 construct: purchased Reaction Biology Europe GmbH
T2 sequence (P04626 23-1255): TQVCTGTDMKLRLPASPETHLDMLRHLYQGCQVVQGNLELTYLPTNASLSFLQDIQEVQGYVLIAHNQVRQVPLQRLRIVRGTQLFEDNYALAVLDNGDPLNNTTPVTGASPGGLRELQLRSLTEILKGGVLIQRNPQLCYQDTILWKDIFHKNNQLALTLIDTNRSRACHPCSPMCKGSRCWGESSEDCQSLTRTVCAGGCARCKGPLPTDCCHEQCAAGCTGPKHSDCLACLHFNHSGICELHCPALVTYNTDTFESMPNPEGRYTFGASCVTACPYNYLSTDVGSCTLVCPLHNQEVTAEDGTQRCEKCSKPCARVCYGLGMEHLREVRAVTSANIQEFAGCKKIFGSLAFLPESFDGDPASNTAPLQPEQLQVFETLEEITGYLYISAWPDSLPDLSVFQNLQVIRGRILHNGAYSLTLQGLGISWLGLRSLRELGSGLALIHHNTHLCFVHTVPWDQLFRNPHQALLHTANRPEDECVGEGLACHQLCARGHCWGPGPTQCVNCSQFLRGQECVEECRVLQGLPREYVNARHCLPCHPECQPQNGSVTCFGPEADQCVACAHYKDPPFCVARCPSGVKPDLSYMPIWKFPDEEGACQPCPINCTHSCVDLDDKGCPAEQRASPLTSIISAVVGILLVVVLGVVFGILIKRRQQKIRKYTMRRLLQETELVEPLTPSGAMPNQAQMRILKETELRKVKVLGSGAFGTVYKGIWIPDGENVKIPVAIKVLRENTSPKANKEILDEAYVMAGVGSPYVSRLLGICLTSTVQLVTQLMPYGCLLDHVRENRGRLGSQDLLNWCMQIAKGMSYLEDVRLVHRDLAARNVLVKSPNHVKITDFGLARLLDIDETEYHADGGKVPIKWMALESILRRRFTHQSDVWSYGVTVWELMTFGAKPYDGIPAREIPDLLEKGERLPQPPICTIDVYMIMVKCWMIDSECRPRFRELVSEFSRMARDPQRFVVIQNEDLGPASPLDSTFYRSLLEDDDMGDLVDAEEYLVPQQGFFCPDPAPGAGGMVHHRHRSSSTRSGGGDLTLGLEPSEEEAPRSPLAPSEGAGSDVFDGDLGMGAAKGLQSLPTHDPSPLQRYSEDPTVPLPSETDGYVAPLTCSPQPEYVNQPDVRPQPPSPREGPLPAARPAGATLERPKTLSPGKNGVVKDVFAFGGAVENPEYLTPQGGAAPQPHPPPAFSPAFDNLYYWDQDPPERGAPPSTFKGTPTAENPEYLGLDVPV
Procedure: as §1, §2, §3

EPHB2 = target: T3, EPHB2 (Homo sapiens, UniProt P29323); assay: PanQinase kinase panel: EPHB2; format: biochemical; conditions: read-out: INHIBITORY EFFECT @ 1 uM: EPHB2
T3 construct: purchased Reaction Biology Europe GmbH
T3 sequence (P29323 19-1055): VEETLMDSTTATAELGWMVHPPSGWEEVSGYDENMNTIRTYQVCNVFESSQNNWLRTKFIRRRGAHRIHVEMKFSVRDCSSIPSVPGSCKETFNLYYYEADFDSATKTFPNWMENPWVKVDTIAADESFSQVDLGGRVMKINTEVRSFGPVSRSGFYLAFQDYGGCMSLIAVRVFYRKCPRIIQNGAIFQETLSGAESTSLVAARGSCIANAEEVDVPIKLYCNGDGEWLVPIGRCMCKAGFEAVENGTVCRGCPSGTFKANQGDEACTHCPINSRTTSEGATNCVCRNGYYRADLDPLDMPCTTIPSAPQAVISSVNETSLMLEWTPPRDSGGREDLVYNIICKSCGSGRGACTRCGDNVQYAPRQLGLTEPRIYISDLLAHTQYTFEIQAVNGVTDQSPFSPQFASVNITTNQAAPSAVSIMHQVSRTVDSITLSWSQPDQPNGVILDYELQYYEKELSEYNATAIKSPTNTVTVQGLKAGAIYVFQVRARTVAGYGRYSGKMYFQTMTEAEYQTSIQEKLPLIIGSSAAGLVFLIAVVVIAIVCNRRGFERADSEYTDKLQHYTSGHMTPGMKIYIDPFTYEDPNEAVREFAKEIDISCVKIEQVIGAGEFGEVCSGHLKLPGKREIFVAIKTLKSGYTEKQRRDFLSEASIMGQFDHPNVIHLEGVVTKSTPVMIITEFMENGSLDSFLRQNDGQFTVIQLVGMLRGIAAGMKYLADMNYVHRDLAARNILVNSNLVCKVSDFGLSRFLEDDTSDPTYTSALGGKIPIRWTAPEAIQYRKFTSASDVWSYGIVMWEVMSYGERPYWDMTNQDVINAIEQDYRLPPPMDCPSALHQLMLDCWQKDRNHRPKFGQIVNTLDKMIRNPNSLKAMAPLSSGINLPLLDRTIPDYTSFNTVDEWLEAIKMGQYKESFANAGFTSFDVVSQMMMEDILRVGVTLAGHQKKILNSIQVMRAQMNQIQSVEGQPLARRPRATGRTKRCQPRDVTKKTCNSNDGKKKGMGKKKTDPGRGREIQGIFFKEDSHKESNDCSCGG
Procedure: as §1, §2, §3

PAK1 = target: T4, PAK1 (Homo sapiens, UniProt Q13153); assay: PanQinase kinase panel: PAK1; format: biochemical; conditions: read-out: INHIBITORY EFFECT @ 1 uM: PAK1
T4 construct: purchased Reaction Biology Europe GmbH
T4 sequence (Q13153 whole entry): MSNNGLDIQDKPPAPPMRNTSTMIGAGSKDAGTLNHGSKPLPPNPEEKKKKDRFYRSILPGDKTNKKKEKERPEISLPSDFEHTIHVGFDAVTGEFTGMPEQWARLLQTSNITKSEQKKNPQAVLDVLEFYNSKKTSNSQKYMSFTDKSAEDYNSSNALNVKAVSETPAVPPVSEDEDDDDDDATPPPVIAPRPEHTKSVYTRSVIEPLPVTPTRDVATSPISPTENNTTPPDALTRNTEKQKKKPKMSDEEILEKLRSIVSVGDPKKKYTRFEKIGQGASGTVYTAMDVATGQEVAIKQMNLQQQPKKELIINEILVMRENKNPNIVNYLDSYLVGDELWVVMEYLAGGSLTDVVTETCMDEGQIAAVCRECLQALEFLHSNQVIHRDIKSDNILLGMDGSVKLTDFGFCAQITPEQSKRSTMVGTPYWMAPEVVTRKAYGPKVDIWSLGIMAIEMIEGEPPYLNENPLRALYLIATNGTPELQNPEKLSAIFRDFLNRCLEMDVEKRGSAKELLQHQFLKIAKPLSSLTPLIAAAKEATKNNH
Procedure: as §1, §2, §3

PAK3 = target: T5, PAK3 (Homo sapiens, UniProt O75914); assay: PanQinase kinase panel: PAK3; format: biochemical; conditions: read-out: INHIBITORY EFFECT @ 1 uM: PAK3
T5 construct: purchased Reaction Biology Europe GmbH
T5 sequence (O75914 whole entry): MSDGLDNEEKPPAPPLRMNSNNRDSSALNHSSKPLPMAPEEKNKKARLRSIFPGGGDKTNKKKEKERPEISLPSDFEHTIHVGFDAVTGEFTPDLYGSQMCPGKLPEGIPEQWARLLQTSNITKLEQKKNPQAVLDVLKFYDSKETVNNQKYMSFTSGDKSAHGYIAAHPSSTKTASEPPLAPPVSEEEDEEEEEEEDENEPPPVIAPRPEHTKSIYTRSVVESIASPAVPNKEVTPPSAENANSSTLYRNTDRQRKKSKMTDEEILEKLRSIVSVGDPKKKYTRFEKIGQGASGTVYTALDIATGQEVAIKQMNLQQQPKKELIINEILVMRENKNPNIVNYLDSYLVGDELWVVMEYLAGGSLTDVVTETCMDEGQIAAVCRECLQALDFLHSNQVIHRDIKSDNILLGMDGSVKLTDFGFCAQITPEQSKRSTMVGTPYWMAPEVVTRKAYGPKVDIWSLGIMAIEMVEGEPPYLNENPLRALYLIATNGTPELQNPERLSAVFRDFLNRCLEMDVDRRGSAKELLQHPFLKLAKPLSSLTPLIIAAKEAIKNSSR
Procedure: as §1, §2, §3

MWCL-1 = assay: Apoptosis assay (annexin V flow cytometry) in Waldenstrom's Macroglobulinemia cells; format: cell-based, human; conditions: for IC50: Homo sapiens, read-out: Apoptosis IC50 (μM) in single-mutant WM Cell Lines (MWCL-1); for promoting apoptosis in WM cells (MWCL-1) compared with ibrutinib or zanubrutinib alone: in words
Procedure: Waldenström's Macroglobulinemia cells (MWCL-1) and the bone marrow stromal cells (BMSCs; HS-27A) were used in this study. The MWCL-1 is a lymphoplasmacytic lymphoma established from the bone marrow aspirate of a patient diagnosed with Waldenström's Macroglobulinemia. It was provided by Dr Stephen M. Ansell (MAYO file number 2021-121; 200 First Street SW, Rochester, Minnesota). This cell line was cultured in RPMI-1640 (Fisher Scientific) containing 10% fetal bovine serum (FBS) (Sigma Aldrich, St Louis, MO), 100U/ml of Penicillin-Streptomycin (Gibco™, ThermoFisher Scientific). The HS-27A bone marrow stromal cells were obtained from ATCC. They were maintained in RPMI 1640 (Fisher Scientific) supplemented with 100U/ml of Penicillin-Streptomycin (Gibco™, ThermoFisher Scientific) and 10% FBS (TakaraBio). Cells were cultured in a 37° C. tissue culture CO2 incubator.
For studies with compounds using a co-culture system of MWCL-1 and BMSCs, BMSCs were cultured in a 96-, 48- or 24-well plates and cultured until the 90% confluence was reached. […] After 1 hour, the MWCL-Icells were added to the BMSC to create a co-culture system. The cells were co-incubated for 72 hours. After incubation time, cell viability, apoptosis, and IgM release were measured.
For studying the effect of compounds on inducing apoptosis of Waldenström Macroglobulinemia cells (MWCL-1). Cells were washed with PBS, resuspended in Annexin V binding buffer (Biolegend), and stained with Alexa Fluor 647 annexin V (Biolegend), Propidium Iodide (BD Pharmigen), and CD45 antibody (Biolegend) for 15 minutes at RT and analyzed by flow cytometry. Data were collected on an CytoFLEX S Flow Cytometer (Beckman Coulter) and analysed with FCS Express Software (De Novo Software). Annexin V positive cells were considered apoptotic.

LIMK2 = target: T6, LIMK2 (Homo sapiens, UniProt P53671); assay: PanQinase kinase panel: LIMK2; format: biochemical
T6 construct: purchased Reaction Biology Europe GmbH
T6 sequence (P53671 whole entry): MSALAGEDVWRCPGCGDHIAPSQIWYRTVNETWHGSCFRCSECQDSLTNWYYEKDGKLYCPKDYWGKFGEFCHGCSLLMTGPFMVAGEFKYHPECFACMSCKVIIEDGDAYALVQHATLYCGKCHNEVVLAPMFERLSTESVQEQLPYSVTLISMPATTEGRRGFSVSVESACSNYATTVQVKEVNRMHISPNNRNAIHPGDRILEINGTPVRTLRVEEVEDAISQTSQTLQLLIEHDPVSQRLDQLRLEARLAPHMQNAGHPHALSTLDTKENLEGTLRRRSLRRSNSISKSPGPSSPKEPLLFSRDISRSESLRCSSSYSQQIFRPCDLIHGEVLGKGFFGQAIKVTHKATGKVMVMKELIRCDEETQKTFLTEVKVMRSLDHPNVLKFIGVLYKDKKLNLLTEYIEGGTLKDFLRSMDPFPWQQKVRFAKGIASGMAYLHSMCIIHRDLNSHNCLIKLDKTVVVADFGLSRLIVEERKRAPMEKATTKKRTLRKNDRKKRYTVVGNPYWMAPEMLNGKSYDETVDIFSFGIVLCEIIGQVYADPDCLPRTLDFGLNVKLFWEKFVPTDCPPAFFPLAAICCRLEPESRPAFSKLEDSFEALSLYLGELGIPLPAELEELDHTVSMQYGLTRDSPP
Procedure: as §1, §2, §3

MAP3K11 = target: T7, MAP3K11 (Homo sapiens, UniProt Q16584); assay: PanQinase kinase panel: MAP3K11; format: biochemical
T7 construct: purchased Reaction Biology Europe GmbH
T7 sequence (Q16584 whole entry): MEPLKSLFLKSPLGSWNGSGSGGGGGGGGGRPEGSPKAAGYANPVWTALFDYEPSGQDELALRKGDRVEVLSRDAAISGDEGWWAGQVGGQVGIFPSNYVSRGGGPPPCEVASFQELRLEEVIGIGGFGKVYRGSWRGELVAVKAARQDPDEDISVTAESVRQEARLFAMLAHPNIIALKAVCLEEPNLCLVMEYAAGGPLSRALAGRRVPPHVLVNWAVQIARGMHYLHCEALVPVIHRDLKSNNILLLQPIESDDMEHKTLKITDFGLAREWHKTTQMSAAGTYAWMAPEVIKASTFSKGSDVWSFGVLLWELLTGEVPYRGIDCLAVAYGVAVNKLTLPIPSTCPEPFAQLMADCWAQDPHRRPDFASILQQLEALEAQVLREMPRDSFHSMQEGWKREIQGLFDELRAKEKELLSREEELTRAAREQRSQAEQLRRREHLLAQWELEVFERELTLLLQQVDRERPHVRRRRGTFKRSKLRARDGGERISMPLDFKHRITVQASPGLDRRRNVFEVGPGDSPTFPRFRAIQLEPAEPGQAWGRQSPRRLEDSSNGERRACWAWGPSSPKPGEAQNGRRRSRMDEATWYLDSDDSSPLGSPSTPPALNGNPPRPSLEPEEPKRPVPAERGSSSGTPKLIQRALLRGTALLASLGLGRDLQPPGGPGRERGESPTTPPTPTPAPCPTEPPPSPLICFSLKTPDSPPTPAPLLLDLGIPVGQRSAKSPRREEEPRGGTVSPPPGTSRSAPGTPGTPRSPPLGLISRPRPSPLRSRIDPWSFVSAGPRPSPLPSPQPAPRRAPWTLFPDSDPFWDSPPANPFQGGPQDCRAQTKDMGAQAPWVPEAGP
Procedure: as §1, §2
As part of the data evaluation the low control of each kinase was subtracted from the high control value as well as from their corresponding “compound values”.

[1] = read-out: INHIBITORY EFFECT @ 1 uM: LIMK2
[2] = read-out: INHIBITORY EFFECT @ 1 uM: MAP3K11

T1 sequence (Q6P5Z2 whole entry): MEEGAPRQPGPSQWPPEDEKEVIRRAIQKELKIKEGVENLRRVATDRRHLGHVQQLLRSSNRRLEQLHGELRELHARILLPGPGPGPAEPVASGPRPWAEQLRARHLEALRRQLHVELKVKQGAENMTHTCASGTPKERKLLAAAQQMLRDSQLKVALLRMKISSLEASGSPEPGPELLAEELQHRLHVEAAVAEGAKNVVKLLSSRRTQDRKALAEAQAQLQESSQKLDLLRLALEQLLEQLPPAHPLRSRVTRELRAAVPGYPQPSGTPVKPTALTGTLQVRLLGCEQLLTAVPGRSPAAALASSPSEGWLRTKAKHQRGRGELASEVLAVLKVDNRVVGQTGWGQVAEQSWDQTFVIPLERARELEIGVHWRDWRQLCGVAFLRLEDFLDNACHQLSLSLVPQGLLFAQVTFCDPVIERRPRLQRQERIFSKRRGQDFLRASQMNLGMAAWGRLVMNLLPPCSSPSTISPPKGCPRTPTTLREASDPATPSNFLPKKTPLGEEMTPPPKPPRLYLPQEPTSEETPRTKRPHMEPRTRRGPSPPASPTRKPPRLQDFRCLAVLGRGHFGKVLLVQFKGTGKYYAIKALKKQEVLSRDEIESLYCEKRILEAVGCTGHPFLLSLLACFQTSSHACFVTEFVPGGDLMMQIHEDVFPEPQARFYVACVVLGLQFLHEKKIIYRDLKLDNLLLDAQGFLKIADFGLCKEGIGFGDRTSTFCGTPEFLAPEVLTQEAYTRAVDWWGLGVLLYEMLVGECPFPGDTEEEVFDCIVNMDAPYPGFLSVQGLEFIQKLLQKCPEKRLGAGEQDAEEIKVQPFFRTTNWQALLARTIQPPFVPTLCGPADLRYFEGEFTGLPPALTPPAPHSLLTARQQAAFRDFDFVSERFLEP

SMILES | inhibition at 1 µM (PKN3) [%] | inhibition at 1 µM (ERBB2) [%] | inhibition at 1 µM (EPHB2) [%] | inhibition at 1 µM (PAK1) [%] | inhibition at 1 µM (PAK3) [%] | IC50 (MWCL-1; class symbol) [µM] | promoting apoptosis in WM cells (MWCL-1) compared with ibrutinib or zanubrutinib alone (MWCL-1) | inhibition at 1 µM (LIMK2; at 1 μM, read-out: inhibition of LIMK2) [%] | inhibition at 1 µM (LIMK2; [1]) [%] | inhibition at 1 µM (MAP3K11; at 1 μM, read-out: inhibition of MAP3K11) [%] | inhibition at 1 µM (MAP3K11; [2]) [%] | IC50 (MWCL-1; numeric) [µM]
O=C(c1ccc(Oc2ccccc2)cc1Cl)c1c[nH]c2ncnc(N[C@@H]3CC[C@@H](CO)OC3)c12 [ARQ-531, (2-chloro-4-phenoxyphenyl) (4-(((3R,6S)-6-(hydroxymethyl)tetrahydro-2H-pyran-3-yl)amino)-7H-pyrrolo[2,3-d]pyrimidin-5-yl) methanone] | 50 to 69 | 70 to 89 | 70 to 89 | 50 to 69 | 90 to 100 |  |  |  |  |  |  | 
Cc1cccnc1[C@H]1CCC[C@@H](c2ncccc2C)N1CCN1CCN(C(=O)c2ccc(-c3cc4c(-c5cccc(NC(=O)c6ccccc6)c5C)ncnc4[nH]3)cc2)CC1 [Compound I-10, N-(3-(6-(4-(4-(2-((2R,6S)-2,6-bis(3-methylpyridin-2-yl)piperidin-1-yl)ethyl)piperazine-1-carbonyl)phenyl)-7H-pyrrolo[2,3-d]pyrimidin-4-yl)-2-methylphenyl)benzamide] | 50 to 69 | < 50 | < 50 | < 50 | < 50 | 0.1 to 2 | more effective in promoting apoptosis | 50 to 89 | 50 to 69 | 50 to 89 | 50 to 69 | 
Cc1cc(-c2ccnc(Nc3cnn(CCN4[C@@H](c5ncccc5C)CCC[C@H]4c4ncccc4C)c3)n2)ccc1CNC(=O)N1CC(OC(C)C)C1 [Compound I-11] |  |  |  |  |  | 0.1 to 2 | more effective in promoting apoptosis |  |  |  |  | 
COc1ccc(F)cc1C(=O)NCc1ccc(-c2nn([C@@H](C)C(F)(F)F)c(N)c2C(N)=O)cc1 [LOXO-305, pirtobrutinib] | < 50 | 50 to 69 | < 50 | < 50 | < 50 |  |  |  | < 50 |  | < 50 | 
C=CC(=O)N1CCC([C@@H]2CCNc3c(C(N)=O)c(-c4ccc(Oc5ccccc5)cc4)nn32)CC1 [Zanubrutinib, (7S)-2-(4-phenoxyphenyl)-7-(1-prop-2-enoylpiperidin-4-yl)-4,5,6,7-tetrahydropyrazolo[1,5-a]pyrimidine-3-carboxamide] | < 50 | < 50 | < 50 | < 50 | < 50 |  |  |  | < 50 |  | < 50 | 17.7

From patent US20250326753A1, “DUAL CXCR4-BTK INHIBITORS” (X4 Pharmaceuticals, Inc., priority 2022, published 2025)
